In patent US20240358831A1, “SELECTION OF IMMUNE CELLS USING PEPTIDE MHC COMPLEXES GENERATED BY CONDITIONAL LIGAND EXCHANGE” (IMMATICS US, INC., priority 2021, published 2024):

System: CD8+ T cells
Experiment: In vitro priming of CD8+ T cells with aAPCs (pHLA/anti-CD28) and pHLA multimer staining
Type: cell-based, human
Experimental: To perform in vitro stimulations by artificial antigen-presenting cells (aAPCs) loaded with peptide-HLA complexes (pHLA) and anti-CD28 antibody, the inventors first isolated CD8+ T cells via positive selection using CD8 microbeads (Miltenyi Biotec, Bergisch-Gladbach, Germany) from fresh HLA-matched leukapheresis products of healthy donors obtained from the University clinics Mannheim, Germany, after informed consent.
PBMCs and isolated CD8+ lymphocytes were incubated in T cell medium (TCM) until use consisting of RPMI-Glutamax (Thermo Fisher Scientific, Waltham, USA) supplemented with 10% heat-inactivated human AB serum (CC Pro, Oberdorla, Germany), 100 U/ml Penicillin/100 μg/ml Streptomycin (Biozym, Hessisch Oldendorf, Germany), 1 mM sodium pyruvate (CC Pro, Oberdorla, Germany) and 20 μg/ml Gentamycin (Biozym, Hessisch Oldendorf, Germany). 2.5 ng/ml IL-7 (PromoCell, Heidelberg, Germany) and 10 U/ml IL-2 (Novartis Pharma, Nürnberg, Germany) were also added to the TCM at this step.
The purified co-stimulatory mouse IgG2a anti human CD28 Ab 9.3 (Jung et al., 1987) was chemically biotinylated using sulfo-N-hydroxysuccinimidobiotin as recommended by the manufacturer (Perbio, Bonn, Germany). Beads used were 5.6 μm diameter streptavidin coated polystyrene particles (Bangs Laboratories, Illinois, USA).
800.000 beads/200 μl were coated in 96-well plates in the presence of up to four different biotinylated pHLA complexes (total amount 50 ng/well), washed and 600 ng biotinylated anti-CD28 were added subsequently in a volume of 200 μl/well.
Stimulations were initiated in 96-well plates by co-incubating 1×10^6 CD8+ T cells with 2×10^5 washed aAPCs in 200 μl TCM supplemented with 5 ng/ml IL-12 (PromoCell) for 3 days at 37° C. Half of the medium was then exchanged by fresh TCM supplemented with 80 U/ml IL-2 and incubation was continued for 4 days at 37° C. This stimulation cycle was performed for a total of three times. […]
For the pHLA multimer readout using up to eight different pHLA molecules per condition, a two-dimensional combinatorial coding approach was used as previously described (Andersen et al., 2012a; Andersen et al., 2012b) with minor modifications encompassing coupling to 5 different fluorochromes.
Finally, multimeric analyses were performed by staining the cells with Live/dead near IR dye (Thermo Fisher Scientific, Waltham, USA), CD8-FITC antibody clone SK1 (BD, Heidelberg, Germany) and fluorescent pHLA multimers. […] Peptide-specific cells were calculated as percentage of total CD8+ cells. […] In vitro priming of specific multimer+CD8+ lymphocytes was detected by comparing to negative control stimulations.

## SARPPL(X)SV [MUDENG-002]
Stimulated with standard refolded pHLA B*07:02_MUDENG-002, three cycles of stimulation, FIG. 5 A
  UV peptide-specific T cell populations (multimer+ cells among CD8+ cells): 2.4 % of CD8+ cells

## RL(X)VGSIPR [HNRNPR-002]
Stimulated with pHLA obtained after UV exchange A*03:01_HNRNPR-002×HADV-014 (residual UV monomer), three cycles, FIG. 5 B
  UV peptide-specific T cell populations (multimer+ cells among CD8+ cells): 6.7 % of CD8+ cells

## KILGFVF(X)V [FLUM-003]
After stimulation with A*02:01_FLUM-003×MLA-001, FIG. 3 C+D
  Presence of peptide specific cells by multimer staining (standard refolded multimers): confirmed the presence
Priming with HLA-A*02_FLUM-003×CMV-001, FIG. 6 Plate B, stimulation position 1 and 2
  Detection of conditional ligand specific cells by multimer staining with EC monomers from the same UV monomer: FLUM-003 specific cells were stimulated and detected
